In US12138383B2, “Heating unit for use in a drug delivery device” (ALEXZA PHARMACEUTICALS, INC., priority 2007, dated 2024):
Each block holds one molecule with its values, some of them ahead of it.

Experiment: Aerosol purity of condensation aerosol vaporized from drug-coated substrate in substrate screening apparatus (HPLC of filter extract)
Format: physicochemical
Settings: for Aerosol Purity (%): 14 μm coating, 30 liters/minute; for Aerosol Purity (% ± SD): perforated 304 stainless steel, 0.4 mg/cm^2, approx. 375° C.
Description: The substrate screening apparatus 400 is made of a machined plastic (polyoxymethylene, DELRIN® Acetal Resin, DuPont, Wilmington, DE) block 402 with a 2 cm^2 cross-sectional area for mounting a substrate 412. Block 402 includes a first airway 404 extending from first inlet 414 to outlet 422. Block 402 also include a second airway 406 extending from second inlet 416 to substrate 412, where it typically joins the first airway. The substrate 412 is mounted in the substrate screening apparatus 400 across two electrodes 420. A first air flow 414 is established in first airway 404 and a second air flow 416 is established in second airway 406 such that the second air flow 416 passes from the second airway 406 to first airway 404 through holes in the substrate 412. While providing air flows 414 and 416, the substrate 412 is heated, typically by discharging a capacitor (not shown) across the substrate 412. In a one embodiment, the flow of air passing through holes in the substrate 412 is in a direction orthogonal to that of air flow 414. Substrate 412 is coated with a drug composition film. The substrate 412 is heated to vaporized all or a portion of the drug composition. The vaporized drug subsequently cools and condenses to form a condensation aerosol that is carried to the outlet by air flow 414, joined by air flow 416). Accordingly, the condensation aerosol is emitted from the outlet 422.
The test substrates were then coated with a drug composition. The drug was typically dissolved in a volatile organic solvent (e.g., dichloromethane/methanol mixture or acetone or other suitable organic solvent) and then spray-coated onto the test substrates using an automated spray coater. Coating parameters, such as the drug concentration in the coating solution, solution flow rate, were selected to obtain a uniform drug coating of the desired coating density (i.e., mass/area).
Total air flow through the substrate screening apparatus was set by providing air flows 414 and 416 at a desired ratio. (As used herein, “across” air flow refers to air flow 414 and “bottom” air flow refers to air flow 416.) Brass electrodes 420 attached to the substrate screening apparatus 400 were used to clamp the substrate 412 in place and provide electrical connections. For most experiments, a 1-Farad capacitor was used as the energy source. The capacitor was typically charged to 11-14 volts, depending on the desired substrate temperature. A high current relay was used to connect the circuit and discharge the capacitor across the substrate to induce heating and vaporization of the drug.
FIG. 5 is a schematic of another embodiment of a substrate screening apparatus 500 that was used to direct air flow through the holes of coated polyimide film (KAPTON® polyimide film) substrates (see FIGS. 2A and 2B). Substrate screening apparatus 500 is similar in configuration and operation to substrate screening apparatus 400, with the exception that substrate screening apparatus 500 includes two electrodes 502 on the same side of the screening apparatus 500, whereas substrate screening apparatus 400 includes two electrodes 420 on opposite sides of the screening apparatus 400. In the examples using polyimide film substrates described below, a polyimide film substrate coated with a drug composition was placed in substrate screening apparatus 500 across electrodes 502. A computer-controlled power supply was connected to the electrodes. The power supply was typically capable of heating the polyimide film substrate to the target temperature within 300 milliseconds, and the substrate was kept at the target temperature for a duration of 1 second.
To determine aerosol purity and emitted dose, a 2 μm Teflon filter (ZEFLUOR PTFE filters, available from Zefon International, Inc., Ocala, FL) was placed immediately downstream from the screening apparatus during aerosol generation. […]

Coated Aerosol Purity (%) (coated drug on polyimide film, coating thickness 14 μm): 98.85% | aerosol purity (perforated polyimide film, 100% of air flow through the substrate, up to at least 30 μm coating thickness, 28.3 liters/minute): ≥ 98% | Aerosol Purity (%) (perforated polyimide film, large holes, across:bottom 75:25): 97.7% | Aerosol Purity (%) (perforated polyimide film, large holes, across:bottom 100:0): 97.1% | Aerosol Purity (%) (perforated polyimide film, small holes, across:bottom 75:25): 97.4% | Aerosol Purity (%) (perforated polyimide film, small holes, across:bottom 100:0): 94.8%
Molecule: CN1CCN(CCCN2c3ccccc3Sc3ccc(Cl)cc32)CC1 [Prochlorperazine, prochlorperazine]

Aerosol Purity (% ± SD) (across:bottom 18:10, hole diameter 0.005″, porosity 5%): 80.1 ± 1.8% | Aerosol Purity (% ± SD) (across:bottom 18:10, hole diameter 0.005″, porosity 10%): 81.4 ± 0.9% | Aerosol Purity (% ± SD) (across:bottom 18:10, hole diameter 0.005″, porosity 20%): 90.7 ± 0.7% | Aerosol Purity (% ± SD) (across:bottom 18:10, hole diameter 0.010″, porosity 5%): 83.6 ± 1.4% | Aerosol Purity (% ± SD) (across:bottom 18:10, hole diameter 0.010″, porosity 10%): 75.4 ± 1.2% | Aerosol Purity (% ± SD) (across:bottom 18:10, hole diameter 0.010″, porosity 20%): 80.8 ± 1.4% | Aerosol Purity (% ± SD) (across:bottom 18:10, hole diameter 0.010″, porosity 40%): 85.6 ± 0.8% | Aerosol Purity (% ± SD) (across:bottom 18:10, hole diameter 0.020″, porosity 5%): 77.8 ± 2% | Aerosol Purity (% ± SD) (across:bottom 18:10, hole diameter 0.020″, porosity 10%): 77.2 ± 2.8% | Aerosol Purity (% ± SD) (across:bottom 18:10, hole diameter 0.020″, porosity 20%): 74.7 ± 1% | Aerosol Purity (% ± SD) (across:bottom 18:10, hole diameter 0.020″, porosity 40%): 81.9 ± 1.2% | Aerosol Purity (% ± SD) (across:bottom 18:10, hole diameter 0.040″, porosity 5%): 70.4 ± 1.1% | Aerosol Purity (% ± SD) (across:bottom 18:10, hole diameter 0.040″, porosity 40%): 77 ± 1% | Aerosol Purity (% ± SD) (across:bottom 23:5, hole diameter 0.005″, porosity 5%): 73.6 ± 2.3% | Aerosol Purity (% ± SD) (across:bottom 23:5, hole diameter 0.005″, porosity 10%): 82.7 ± 1.4% | Aerosol Purity (% ± SD) (across:bottom 23:5, hole diameter 0.005″, porosity 20%): 87.9 ± 2% | Aerosol Purity (% ± SD) (across:bottom 23:5, hole diameter 0.010″, porosity 5%): 76.1 ± 0.1% | Aerosol Purity (% ± SD) (across:bottom 23:5, hole diameter 0.010″, porosity 10%): 71.4 ± 0.7% | Aerosol Purity (% ± SD) (across:bottom 23:5, hole diameter 0.010″, porosity 20%): 80.6 ± 3.1% | Aerosol Purity (% ± SD) (across:bottom 23:5, hole diameter 0.010″, porosity 40%): 84.2 ± 0.1% | Aerosol Purity (% ± SD) (across:bottom 23:5, hole diameter 0.020″, porosity 5%): 77.9 ± 1.1% | Aerosol Purity (% ± SD) (across:bottom 23:5, hole diameter 0.020″, porosity 10%): 72.7 ± 1.8% | Aerosol Purity (% ± SD) (across:bottom 23:5, hole diameter 0.020″, porosity 20%): 69.9 ± 0.3% | Aerosol Purity (% ± SD) (across:bottom 23:5, hole diameter 0.020″, porosity 40%): 80 ± 1.3% | Aerosol Purity (% ± SD) (across:bottom 23:5, hole diameter 0.040″, porosity 5%): 68.6 ± 1.1% | Aerosol Purity (% ± SD) (across:bottom 23:5, hole diameter 0.040″, porosity 40%): 74.3 ± 7.3%
Molecule: CC1(C)O[C@@H]2C[C@H]3[C@@H]4C[C@H](F)C5=CC(=O)C=C[C@]5(C)[C@H]4[C@@H](O)C[C@]3(C)[C@]2(C(=O)CO)O1 [Flunisolide, flunisolide]

aerosol purity (perforated 316 stainless steel, 1:9 across:bottom, drug coating thicknesses up to 6 μm, 28.3 liters/minute): ≥ 97% | aerosol purity (solid 304 stainless steel, 100% air flow across, drug coating thickness 2 μm): ≤ 94% | aerosol purity (solid 304 stainless steel, 100% air flow across, drug coating thicknesses greater than about 1 μm): below 97%
Molecule: CCCc1nn(C)c2c(=O)[nH]c(-c3cc(S(=O)(=O)N4CCN(C)CC4)ccc3OCC)nc12 [sildenafil free base, sildenafil]

drug purity (aerosol) (perforated polyimide film, across:bottom 27:1, 350° C.): around 20%
Molecule: NCC(CC(=O)O)c1ccc(Cl)cc1 (stereo not drawn) [baclofen]

Molecule: C[C@@H]1C[C@H]2[C@@H]3CCC4=CC(=O)C=C[C@]4(C)[C@@]3(Cl)[C@@H](O)C[C@]2(C)[C@@]1(OC(=O)c1ccco1)C(=O)CCl
aerosol purity (non-perforated SULFINERT-treated and heat-passivated 304 stainless steel, 350° C., no air flow ratio): poor

aerosol purity (perforated polyimide film, all four test conditions (3:1 and 1:3, 325° C. and 350° C.)): > 97%
Molecule: CCC(=O)O[C@]1(C(=O)SCF)[C@H](C)C[C@H]2[C@@H]3C[C@H](F)C4=CC(=O)C=C[C@]4(C)[C@@]3(F)[C@@H](O)C[C@@]21C [fluticasone propionate]

aerosol purity (perforated polyimide film, all three test conditions (6:1 at 375° C., 3:1 at 350° C., 1:1 at 350° C.)): > 99.7%
Molecule: cyclobenzaprine fumarate
